# Patent US9655822B2, “Hydrated lamellar phases or liposomes which contain a fatty monoamine or a cationic polymer which promotes intracellular penetration, and a cosmetic or pharmaceutical composition containing same, as well as a method of screening such a substance” (BASF Beauty Care Solutions France S.A.S., priority 2004, dated 2017)
# What was measured:
# normal human fibroblasts [1] = assay: Cell viability in the screening of functionalising molecules; settings: 1% of molecule (25 kDa PEI: 50 μM), 96-well plate
# Protocol: 250 μl of liposomal suspension is added onto cultures of normal human fibroblasts extracted from abdominal plasy and cultivated in a 96-well plate. Each concentration is tested on 6 different wells. The cell viability is evaluated by a test with paranitrophenylphosphate which determines the intracellular alkaline phosphatase activity after three rinses with pH 7.4 phosphate buffer. The percentage of living cells is calculated with respect to a control made without the addition of liposome in the culture well (n=6).
# 55 molecules are firstly tested in triplicate, in comparison with the 50 μM 25 kDa PEI. The intracellular penetration is quantified after 24 hours of incubation on normal human fibroblasts cultivated in 24-well plates as described in Example 2. The cell viability is estimated in a 96-well plate with 200 μl of liposomal suspension.
# The intracellular penetration and the cytotoxicity are evaluated as described in Example 2.
# normal human fibroblasts [2] = assay: Cytotoxicity of the fluorescent tracers (paranitrophenylphosphate test); assay type: cell-based; settings: for Cell viability (% of untreated control): incubation 24 hours
# Protocol: Each concentration is tested on 6 different wells.
# (§1) The selection of the tracer necessitated the preparation and the purification of liposomes, according to the protocol described in Example 1, these liposomes containing varying concentrations of the various hydrosoluble or liposoluble tracers (Table 1, Annex 1). The controls—a free fluorescent tracer—are made by dissolution at the same concentration of fluorescent tracer in the dilution buffer, so as to quantify its cytotoxicty and its spontaneous penetration in the fibroblasts.
# (§2) The fibroblasts are incubated for 24 hours at 37° C. in the presence of the liposomes, and are then rinsed 3 times in pH 7.4 phosphate buffer. First of all, the fluorescence is evaluated dry by spectrofluorimetry with a Cytofluor 4000® (Millipore). Secondly, the intracellular fluorescence is observed for the molecules of interest on an Olympus® reverse microscope (IX70) by using the corresponding excitation filter (objective ×10, ×40 and ×100). Finally, the cytotoxicity of the fluorescent tracers is evaluated in a 96-well plate by incubation for 24 hours as described in Example 1.
# normal human fibroblasts [3] = assay: Intracellular penetration of fluorescent tracers, free or in liposomes (spectrofluorimetry); assay type: cell-based; settings: for cell-permeating: free probe; for Penetration in liposome: probe encapsulated in liposome; for Penetration (fluorescence after washing): 0.01% tracer in liposomes; for Penetration (fluorescence after washing) / Penetration free probe: 24 hours, gain (45 PFB-F, 50 TRITC)
# From the text: as §1
# Practically, after extraction from a biopsy originating from abdominal plastic surgery, the fibroblasts are amplified in DF medium, i.e.: DMEM (Dulbecco's Modified Eagle's Medium)/Ham F12 glutamax 50/50 volume/volume, supplemented with 10% of calf serum, with penicillin at a final concentration of 100 UI/millilitre, with gentamicin at a final concentration of 1 microgram/millilitre, with amphotericin B at a final concentration of 1 microgram/millilitre.
# Firstly, after centrifugation, the purified liposomes are taken up into DF culture medium, homogenised in a vortex, and are deposited at the rate of 1 ml per well on the fibroblasts cultivated in 24-well plates (Costar MW24). The controls are made under the same conditions. A non-treated control is also made.
# as §2
# The intracellular penetration of liposomes which contain 5% of soya lecithin, 0.01% of PFB-F or TRITC in the presence or not of 0.5% 25 kDa polyethylenimine (PEI), which are prepared according to the protocol described in Example 1, is analysed after incubation for 24 hours on human fibroblasts cultivated in a 24-well plate, as described in Example 2.
# [4] = Encapsulation of fluorescent tracer in soya lecithin liposomes (yield, leak); assay type: physicochemical
# Protocol: 0.5 g of soya lecithin, 0.01% of fluorescent tracer which is pre-solubilised according to the recommendations of the provider, are introduced into a dish and is diluted in 10 ml of Trizma buffer. After magnetic agitation for 30 minutes at ambient temperature, the mixture is vigorously homogenised for 10 minutes, in thus obtaining a liposomal solution in which the liposomes have an average size which can vary between 100 and 800 nanometres according to the exact conditions of homogenisation.
# The aim of the purification step is to separate the non-encapsulated tracer fraction from the fraction of tracer which is encapsulated in the liposomes. For this, the liposomal solution is centrifuged in a conical tube for 10 minutes at 1,790 g at ambient temperature. The plugs are then recovered and then solubilised in 10 ml of culture medium.
# Liposomes are prepared according to the method described in Example 5 with increasing concentrations of 25 kDa PEI from 0 to 100 μM. After centrifugation at 1,790 g for 10 minutes, the supernatants are quantified by spectrofluorimetry. The yields of encapsulation are calculated with respect to the initial concentration.
# tyrosinase = target: T1, tyrosinase (Homo sapiens, UniProt P14679); assay: Tyrosinase activity in melanocytes (L-DOPA/MBTH); assay type: cell-based; parameters: unit not given here; settings: 66 hours; for Depigmenting effect: rate of enzymatic reaction (tyrosinase activity), Free: active applied free, normal human melanocytes; for Depigmenting effect: rate of enzymatic reaction (tyrosinase activity), PEI Liposome: active in 10 μM PEI functionalised liposome; for Depigmenting effect: rate of enzymatic reaction (tyrosinase activity), Soya liposome: active in 2% quaternised soya liposome; for Depigmenting effect: rate of enzymatic reaction (tyrosinase activity), Lipsosome: active in 5% lecithin liposome
# T1 construct: on normal human melanocytes cultivated in 24-well plates and pre-confluent; endogenous in cells; host or cells: normal human melanocytes
# T1 sequence (P14679 19-529): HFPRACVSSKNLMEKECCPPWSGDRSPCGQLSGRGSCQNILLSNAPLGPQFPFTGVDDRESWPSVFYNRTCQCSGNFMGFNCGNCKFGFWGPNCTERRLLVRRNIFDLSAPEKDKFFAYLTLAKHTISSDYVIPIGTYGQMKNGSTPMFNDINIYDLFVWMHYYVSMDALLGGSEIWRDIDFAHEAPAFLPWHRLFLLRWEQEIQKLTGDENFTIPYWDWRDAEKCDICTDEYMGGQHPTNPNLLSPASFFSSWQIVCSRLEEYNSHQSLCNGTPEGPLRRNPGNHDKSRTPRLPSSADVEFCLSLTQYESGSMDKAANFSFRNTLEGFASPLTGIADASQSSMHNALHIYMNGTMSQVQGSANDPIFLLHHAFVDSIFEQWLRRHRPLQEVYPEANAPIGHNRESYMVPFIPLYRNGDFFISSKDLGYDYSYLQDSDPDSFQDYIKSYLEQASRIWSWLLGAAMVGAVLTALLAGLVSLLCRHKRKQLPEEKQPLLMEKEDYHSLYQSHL
# Protocol: Actives are also co-encapsulated: Phytolight® (Coletica, Lyons, France) without 0.05% preservative (cocktail of plant actives), 0.05% arbutine and 1 mM catechin (Sigma). […] The actives which are liposomed or not are incubated for 66 hours at 37° C. under 5% CO2 in MMK2 medium (Sigma). […] The formation of a MBTH-o-quinone compound is characterised by an absorbance value at 490 nm quantified kinetically. The tyrosinase activity is expressed by the slope (rate) of the enzymatic reaction.
molecule,measurement,setting,value
"CCCCCCCCCCCCCCCN [Pentadecylamine C15, Pentadecylamine]",Viability,normal human fibroblasts [1],73%
sulfo fluorescein diacetate [#S-1129 sulfo fluorescein diacetate],Toxicity,normal human fibroblasts [2],No
same,cell-permeating,normal human fibroblasts [3],no
same,Penetration in liposome,normal human fibroblasts [3],Very low
tetramethylrhodamine isothiocyanate [TRITC],Encapsulated,[4],Yes
same,Toxicity,normal human fibroblasts [2],No
same,cytotoxicity (in words),normal human fibroblasts [2],slightly cyctotoxic
same,Cell viability (% of untreated control),normal human fibroblasts [2],74.8%
same,Penetration (fluorescence after washing),normal human fibroblasts [3],"1,119 (gain 50)"
same,penetration when added free in the culture medium (in words),normal human fibroblasts [3]; free tracer,penetrates slightly
same,Penetration free probe,normal human fibroblasts [3]; free tracer,295 (gain 50)
same,Penetration in liposome,normal human fibroblasts [3],Yes
NNC(=O)COc1cc(S(=O)(=O)[O-])c2ccc3c(S(=O)(=O)[O-])cc(S(=O)(=O)[O-])c4ccc1c2c43.[Na+].[Na+].[Na+] [cascade blue hydrazine trisodium salt],Encapsulated,[4],Yes
same,Toxicity,normal human fibroblasts [2],No
same,cell-permeating,normal human fibroblasts [3],No
same,Penetration in liposome,normal human fibroblasts [3],Very low
"CCCCCCCCCCCCCCCCCCN [Octadecylamine C18, Octadecylamine]",Viability,normal human fibroblasts [1],61.2%
"CCCCCCCN [Heptylamine C7, Heptylamine]",Viability,normal human fibroblasts [1],39.4%
"CCCCCCCCNCCCCCCCC [Dioctylamine 2 C8, Dioctylamine]",Viability,normal human fibroblasts [1],34.7%
"CCCCCCCCCCCCCN [Tridecylamine C13, Tridecylamine]",Viability,normal human fibroblasts [1],62.6%
CC(O)CN(CCN(CC(C)O)CC(C)O)CC(C)O (stereo not shown) [Tetrahydroxypropyl ethylenediamine],Viability,normal human fibroblasts [1],95.3%
"Cc1ccc(N(CC(=O)[O-])CC(=O)[O-])c(OCCOc2cc3cc(-c4ncc(C(=O)[O-])o4)oc3cc2N(CC(=O)[O-])CC(=O)[O-])c1.[K+].[K+].[K+].[K+].[K+] [#F-1200 Fura-2. pentapotassium salt, Fura-2. pentapotassium salt]",Encapsulated,[4],No
same,Toxicity,normal human fibroblasts [2],No
same,cell-permeating,normal human fibroblasts [3],No
same,Penetration in liposome,normal human fibroblasts [3],No
carboxy dichlorofluorescein [#C-369 carboxy dichlorofluorescein],Encapsulated,[4],Yes
same,leak,[4],Yes
same,cell-permeating,normal human fibroblasts [3],Yes
carboxyethyl carboxyffluorescein [#B-1151 carboxyethyl carboxyffluorescein],Encapsulated,[4],No
OC[C@H]1O[C@@H](Oc2ccc(O)cc2)[C@H](O)[C@@H](O)[C@@H]1O [Arbutin],"Depigmenting effect: rate of enzymatic reaction (tyrosinase activity), Free",tyrosinase,0.004
same,"Depigmenting effect: rate of enzymatic reaction (tyrosinase activity), PEI Liposome",tyrosinase,0
same,"Depigmenting effect: rate of enzymatic reaction (tyrosinase activity), Soya liposome",tyrosinase,0
same,"Depigmenting effect: rate of enzymatic reaction (tyrosinase activity), Lipsosome",tyrosinase,0.001
"CCCCCCCCCCCCCCN [Tetradecylamine C14, Tetradecylamine]",Viability,normal human fibroblasts [1],54.8%
dextran texas red [#D-3329 dextran texas red],cell-permeating,normal human fibroblasts [3],No
same,Penetration in liposome,normal human fibroblasts [3],No
"CCCCNCCCC [Dibutylamine 2 C4, Dibutylamine]",Viability,normal human fibroblasts [1],75.7%
"CCCCCCCCCCN [Decylamine C10, Decylamine]",Viability,normal human fibroblasts [1],68.5%
"CCCCCCCCCCNCCCCCCCCCC [Didecylamine 2 C10, Didecylamine]",Viability,normal human fibroblasts [1],28.3%
"CCCCCCCCCCCCCCCCCC[N+](C)(C)Cc1ccccc1.[Cl-] [Stearalkonium chloride, benzyldimethyl (octadecyl) ammonium chloride]",Viability,normal human fibroblasts [1],37.4%
"CCCCCCN [Hexylamine C6, Hexylamine]",Viability,normal human fibroblasts [1],82.1%
"CCCCCCCC/C=C\CCCCCCCCN [Oleylamine C18:1, Oleylamine]",Viability,normal human fibroblasts [1],87.1%
Lysosensor yellow/blue DND 160 [#L7545L Lysosensor yellow/blue DND 160],Encapsulated,[4],Yes
same,leak,[4],Yes
same,Toxicity,normal human fibroblasts [2],No
same,cell-permeating,normal human fibroblasts [3],Yes
same,Penetration in liposome,normal human fibroblasts [3],No
Catechin,"Depigmenting effect: rate of enzymatic reaction (tyrosinase activity), Free",tyrosinase,0.007
same,"Depigmenting effect: rate of enzymatic reaction (tyrosinase activity), PEI Liposome",tyrosinase,0
same,"Depigmenting effect: rate of enzymatic reaction (tyrosinase activity), Soya liposome",tyrosinase,0.003
same,"Depigmenting effect: rate of enzymatic reaction (tyrosinase activity), Lipsosome",tyrosinase,0.007
"CCCN [Propylamine C3, Propylamine]",Viability,normal human fibroblasts [1],103.3%
"O=C1OC2(c3ccc(O)cc3Oc3cc(O)ccc32)c2ccc(NC(=O)c3c(F)c(F)c(F)c(F)c3F)cc21 [PFB-F, 5-pentafluorobenzoylaminofluorescein]",Encapsulated,[4],Yes
same,leak,[4],No
same,Yield (%) of encapsulation of PFB-F,[4]; PEI 0 μM,89.0%
same,Yield (%) of encapsulation of PFB-F,[4]; PEI 1 μM,92.3%
same,Yield (%) of encapsulation of PFB-F,[4]; PEI 10 μM,91.0%
same,Yield (%) of encapsulation of PFB-F,[4]; PEI 50 μM,87.5%
same,Yield (%) of encapsulation of PFB-F,[4]; PEI 100 μM,86.3%
same,yield of incorporation in the liposomes,[4]; liposomes based on soya lecithin,about 80%
same,Cell viability (% of untreated control),normal human fibroblasts [2],110.7%
same,Penetration (fluorescence after washing),normal human fibroblasts [3],65 (gain 45)
same,cell-permeating,normal human fibroblasts [3],No
same,Penetration free probe,normal human fibroblasts [3]; free tracer,8 (gain 45)
same,Penetration in liposome,normal human fibroblasts [3],Yes
"CCCCCCCCCCCCN [Dodecylamine C12, Dodecylamine]",Viability,normal human fibroblasts [1],57%
"O=S(=O)([O-])c1cc(O)c2ccc3c(S(=O)(=O)[O-])cc(S(=O)(=O)[O-])c4ccc1c2c34.[Na+].[Na+].[Na+] [hydroxypyrene trisulfonic acid, trisodium salt]",Encapsulated,[4],No
same,cell-permeating,normal human fibroblasts [3],No
same,Penetration in liposome,normal human fibroblasts [3],No
"CCCCCCCCCCCN [Undecylamine C11, Undecylamine]",Viability,normal human fibroblasts [1],84%
